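Grown in 96-well plates, cells were treated for 48 hours with each compound at five concentrations. Insufficient inhibition: endpoint recorded as highest concentration tested. GI50: concentration for 50% inhibition of growth. Definition used: TGI = concentration required for complete inhibition of growth.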 Numbered stars: 1 amine (or outer) side, 2 acyl side, 3 side chain; on linkers, the order of the positions; unused ones are H or OH. Bridge positions count the residues as written; N and C are the ends. Square brackets hold non-standard residues; d marks the D form. Peptide text beside a SMILES is read from it. I, II: the chains in the order shown. Actinocin(1to9) = Cc1c2oc3c(C)ccc(C(=O)[*:2])c3nc-2c(C(=O)[*:1])c(N)c1=O; NMeY = CN[CH](Cc1ccc(O)cc1)C(=O)O; Sar = CNCC(=O)O A value given as a limit tells only on which side of the number the result lay.

Among the test systems are MDA-N; DMS 114 small cell lung; XF 498 CNS; HOP-18 NSCLC; DLD-1 colon; KM20L2 colon; RXF-631 renal; SNB-78 CNS; M19-MEL melanoma.
What all share (experiment): NCI anticancer screen, dose series, 48 h

Regarding `COC(C)C(O)(C(=O)OCC1=CCN2CCC(O)C12)C(C)(C)O` (centres undefined), the TGI in the experiment with MDA-N was > 100 µM.
Regarding `CO[C@@]1(c2ccccc2)O[C@H]2OCCC2[C@H]1c1ccc(Cl)cc1` (some centres undefined), the TGI was > 100 µM in the experiment on DMS 114 small cell lung; 69.3 µM in the experiment on XF 498 CNS; 99 µM in the experiment with HOP-18 NSCLC; > 100 µM in the experiment on DLD-1 colon; > 100 µM with KM20L2 colon; > 100 µM with RXF-631 renal. Also, the TGI with SNB-78 CNS was > 100 µM.
Turning to `C=C1C[C@@H]2C[C@@H](C)CC(O)[C@]2(CCCN)C1O` (some centres undefined), the TGI in the experiment on DMS 114 small cell lung, with XF 498 CNS, in the experiment on HOP-18 NSCLC, in the experiment on M19-MEL melanoma, with DLD-1 colon and in the experiment with KM20L2 colon was > 100 µM in each case. Moreover, the TGI with RXF-631 renal and in the experiment on SNB-78 CNS was > 100 µM each time.
As for `COc1ccc(OC(C)C(=O)O)c2c(=O)ccccc12` (centres undefined), the TGI in the experiment on DMS 114 small cell lung, in the experiment on XF 498 CNS, in the experiment with M19-MEL melanoma, with DLD-1 colon, with KM20L2 colon and in the experiment on RXF-631 renal was > 100 µM throughout. The TGI with SNB-78 CNS is > 100 µM.
`C[C@@H]1CC[C@@]2(NC1)O[C@H]1C[C@H]3[C@@H]4CC[C@H]5C[C@@H](O)CC[C@]5(C)[C@H]4CC[C@]3(C)[C@H]1[C@@H]2C`: the TGI with MDA-N was > 100 µM.
As for `CCC(CO)Nc1nc2c(c(=O)n(C)c(=O)n2C)n1CCO` (centres undefined), the TGI is > 100 µM in the experiment with M19-MEL melanoma, > 100 µM in the experiment on KM20L2 colon and 53.5 µM with SNB-78 CNS.
Consider `C1=CCCC=CCC1.C[PH+](C)C.C[PH+](C)C.C[PH+](C)C.[Cl-].[Ir]`, for which the GI50 in the experiment on HOP-18 NSCLC was > 100 µM; with M19-MEL melanoma it was 39.8 µM; in the experiment with DLD-1 colon, > 100 µM; in the experiment with KM20L2 colon it was > 100 µM; in the experiment with SNB-78 CNS, > 100 µM. Besides, the TGI in the experiment on HOP-18 NSCLC, in the experiment with M19-MEL melanoma, in the experiment with DLD-1 colon, in the experiment on KM20L2 colon and in the experiment on SNB-78 CNS was > 100 µM each time.
As for `COc1ccc([C@@H]2OC(=O)C3C2C(=O)O[C@H]3c2ccc(OC)c(OC)c2)cc1OC` (some centres undefined), the TGI in the experiment with DMS 114 small cell lung, in the experiment with XF 498 CNS, with HOP-18 NSCLC, with M19-MEL melanoma, in the experiment on KM20L2 colon and in the experiment on RXF-631 renal was > 100 µM each time. Besides, in the experiment on SNB-78 CNS, the TGI was > 100 µM.
Take `COc1ccc(-c2cc(=O)c3c(O)c(OC)c(OC)c(OC)c3o2)cc1`: the TGI in the experiment on MDA-N is 13 µM.
With `COc1cc2cnc3c4cc(OCc5ccccc5)ccc4ccc3c2cc1OC`, the TGI was 80.4 µM in the experiment with DMS 114 small cell lung; > 100 µM with HOP-18 NSCLC; > 100 µM in the experiment on M19-MEL melanoma; > 100 µM in the experiment on DLD-1 colon; > 100 µM in the experiment on KM20L2 colon; 98.8 µM in the experiment with RXF-631 renal. The TGI with SNB-78 CNS came out at 65.4 µM.
For `COc1cc(/C=N/N=C(\N)NO)c([N+](=O)[O-])cc1OC`, the TGI with DMS 114 small cell lung was 46.2 µM; with HOP-18 NSCLC, > 100 µM; in the experiment on M19-MEL melanoma, > 100 µM; in the experiment with DLD-1 colon, > 100 µM; in the experiment with KM20L2 colon it was > 100 µM; with RXF-631 renal it was > 100 µM. Besides, the TGI in the experiment with SNB-78 CNS is > 100 µM.
Regarding `NC(=O)c1ccc(Cl)c([N+](=O)[O-])c1`, the TGI with DMS 114 small cell lung, in the experiment on XF 498 CNS, in the experiment with HOP-18 NSCLC, in the experiment with M19-MEL melanoma, in the experiment on DLD-1 colon and in the experiment with KM20L2 colon was > 100 µM each time. For the same compound, the TGI in the experiment with SNB-78 CNS is > 100 µM.
With `COC(=O)CC[C@]12C[C@]13CC[C@]1(C)C4C(C)C[C@]5(CC(C)C(=O)O5)OC4CC1(C)C3CCC2C(C)(C)O` (some centres undefined), the TGI is > 100 µM with DMS 114 small cell lung; 87.6 µM with XF 498 CNS; > 100 µM with HOP-18 NSCLC; > 100 µM in the experiment with M19-MEL melanoma; > 100 µM in the experiment on DLD-1 colon; > 100 µM in the experiment on KM20L2 colon. In addition, the TGI with SNB-78 CNS was > 100 µM.
In the case of `CN(N)c1nc(N)c(C#N)c(C#N)c1C#N`, the TGI in the experiment with MDA-N is > 10 µM.
Take `COC(=O)C1CCc2nnc(-c3ccccc3)n21` (centres undefined): the TGI in the experiment with DMS 114 small cell lung, with XF 498 CNS, in the experiment with M19-MEL melanoma, in the experiment on DLD-1 colon, in the experiment on KM20L2 colon and with SNB-78 CNS was > 100 µM in each case.
Take `O=c1c2cc3ccccc3n2c(=O)c2cc3ccccc3n12`: the TGI in the experiment with DMS 114 small cell lung, with XF 498 CNS, in the experiment with HOP-18 NSCLC, with M19-MEL melanoma, with DLD-1 colon and with KM20L2 colon was > 100 µM throughout. For the same compound, the TGI with SNB-78 CNS is > 100 µM.
As for `NC(Cc1ccccc1)c1nccs1` (centres undefined), the TGI in the experiment on MDA-N was > 100 µM.
With `COc1ccc(CC2C(=O)OC(C)C(NC(=O)c3c4nc5c(C(=O)NC6C(=O)NC(C(C)C)C(=O)N7CCCC7C(=O)N(C)CC(=O)N(C)C(Cc7ccc(OC)cc7)C(=O)OC6C)ccc(C)c5oc-4c(C)c(=O)c3N)C(=O)NC(C(C)C)C(=O)N3CCCC3C(=O)N(C)CC(=O)N2C)cc1` (centres undefined) (I: TVP[Sar][NMeY](Me) / II: TVP[Sar][NMeY](Me); ester I:1-I:C, II:1-II:C; linker I:N-II:N via Actinocin(1to9); configuration not given here), the TGI in the experiment on MDA-N came to 0.218 µM.
Regarding `CC(=O)[O-].N.N.N.N.[Co+3].[O-][Cl+3]([O-])([O-])[O-].[OH3+]`, the GI50 with DLD-1 colon, in the experiment on KM20L2 colon and in the experiment on SNB-78 CNS was > 100 µM throughout. In addition, the TGI with DLD-1 colon, in the experiment on KM20L2 colon and in the experiment on SNB-78 CNS was > 100 µM throughout.
`C[CH2][Sn]([CH2]C)([O]C(=O)c1ccc(F)cc1)[O]C(=O)c1ccc(F)cc1`: the GI50 in the experiment on DMS 114 small cell lung was 18.8 µM; in the experiment with XF 498 CNS, 20.2 µM; in the experiment on HOP-18 NSCLC it was 16.1 µM; in the experiment on DLD-1 colon, 23.9 µM; in the experiment on KM20L2 colon it was 72.6 µM; in the experiment on RXF-631 renal, 17.5 µM. Also, the GI50 with SNB-78 CNS is 20 µM. Besides, the TGI in the experiment on DMS 114 small cell lung was 39.9 µM; in the experiment with XF 498 CNS, 37.3 µM; in the experiment on HOP-18 NSCLC it was 29.6 µM; in the experiment on DLD-1 colon, > 65.8 µM; in the experiment with KM20L2 colon it was > 100 µM; in the experiment on RXF-631 renal, 32.3 µM. In addition, the TGI with SNB-78 CNS was 37.9 µM.

These data come from PubChem BioAssay (NCI).
